Source: article PMC10831071, “Reaction hijacking inhibition of Plasmodium falciparum asparagine tRNA synthetase” (Nature Communications, 2024)
In brackets after ≈: the same amount, converted by molar mass. Several values for one entry are separate records, joined by “and”; a condition that tells them apart may be missing. Identical values can stand only once.

Columns and labels:
[1] = Metabolic stability in human liver microsomes; format: in vitro ADME; conditions: n = 2
Experimental: A solution of the test compounds in phosphate buffer solution (1 µM) was incubated in pooled human and mouse liver microsomes (0.5 mg/ml) for 0, 5, 20, 30, 45 and 60 min at 37 °C in the presence and absence of an NADPH regeneration system (NRS). The tests were carried out by TCGLS, Kolkata, India. The reaction was terminated with the addition of ice-cold acetonitrile, containing a […] standard, at designated time points. The sample was centrifuged (3300 × g) for 20 min at 20 °C and the supernatant was diluted by half in water and then analyzed by LC-MS/MS. The % parent compound remaining, half-life (T1/2) and clearance (CLint,app) were calculated using standard methodology. The experiment was carried out in duplicate. Verapamil, diltiazem, phenacetin and imipramine were used as reference standards.

[2] = Stability in rat hepatocytes; format: in vitro ADME
[3] = system: Dd2 parasites selected with OSM-S-106; experiment: Sensitivity of ramp-up OSM-S-106-selected Dd2 clones; format: cell-based; conditions: Plasmodium falciparum
[4] = system: protein translation in P. falciparum trophozoites (Cam3.II-rev); experiment: Protein translation assay (OPP incorporation); format: cell-based, Plasmodium falciparum; conditions: for Translation: 6 h exposure, individual experiments, 0 nM = 100
Experimental: O-propargyl-puromycin (OPP) (Abcam) was added to the culture and incubated for a further 2 h. Parasites were washed three times in 1 × PBS (Gibco™) and fixed with 4% formaldehyde (Polysciences) and 0.02% glutaraldehyde (Sigma) in 1 × PBS for 20 min at room temperature (RT). Cells were washed two times with buffer A (3% human serum in 1 × PBS). Pellets were permeabilized in buffer A containing 0.05% Triton® X-100 and washed two times with buffer A. Fixed-permeabilized cells were subjected to copper-catalyzed azide–alkyne cycloaddition (CuAAC) at 37 °C for 1 h in the presence of 0.1 mM CuSO4, 0.5 mM THPTA, 5 mM sodium ascorbate, and 0.1 μM Alexa Fluor 488 azide in buffer A. Pellets were washed four times in buffer A and resuspended in buffer A containing 25 μg/ml propidium iodide (Invitrogen™). Cells were interrogated by flow cytometry (FACS Canto II; BD Biosciences, San Jose, CA) using FITC and Cy™5.5 channels.

P. falciparum Dd2 parent = experiment: 72 h sensitivity of wildtype Dd2 parent line; format: cell-based, Plasmodium falciparum; conditions: for growth after 72 h exposure, normalised to no drug: replicates
[5] = system: control YFP line (TetR/DOZI module); experiment: OSM-S-106 susceptibility assay, control YFP line; format: cell-based, Plasmodium falciparum; conditions: YFP-aptamer control line
Experimental: Synchronous ring-stage PfAsnRS, PfAlaRS, PfGlyRS, PfNT4, PfGDH3, and PfCA cKD parasites, as well as a control line expressing a fluorescent protein under the control of the TetR/DOZI module, were maintained in 0.5 µM aTc to achieve wild-type protein levels, and 0.001 or 0.0015 µM aTc for knockdown of PfAsnRS, PfAlaRS and PfGlyRS, and no aTc for knockdown of PfNT4, PfGDH3 and PfCA. DMSO- and dihydroartemisinin-treatment (0.5 µM) served as reference controls.

Solubility = format: physicochemical
[6] = Solid state stability under ambient conditions; format: physicochemical

What does the source list for `Nc1ncnc2cc(-c3cccc(S(N)(=O)=O)c3)sc12` [OSM-S-106]?
Degradation half-life [1]: 395/619; stability during incubation with rat hepatocytes [2]: stable; IC50 ([3]; DD2, parasite Dd2-B2-2 (parent)): 79 ± 12 nM; IC50 ([3]; DD2, parasite Dd2-B2-3 (parent)): 80 nM; IC50 ([3]; DD2, parasite Dd2-OSM-2A6): 700 nM; IC50 ([3]; DD2, parasite Dd2-OSM-2A9): 320 nM; IC50 ([3]; DD2, parasite Dd2-OSM-2B2): 700 nM; IC50 ([3]; DD2, parasite Dd2-OSM-2D6): 780 nM; IC50 ([3]; DD2, parasite Dd2-OSM-3E5): 160 nM; IC50 ([3]; DD2, parasite Dd2-OSM-3H7): 220 nM; Translation ([4]; 78.1 nM): 88.2194 and 68.5604 and 78.7165; Translation ([4]; 156.3 nM): 70.9569 and 76.7178 and 73.7965; Translation ([4]; 312.5 nM): 55.5714 and 55.4781 and 55.6229; Translation ([4]; 625 nM): 47.9476 and 51.4282 and 41.085; Translation ([4]; 1250 nM): 31.8914 and 46.8967 and 33.6793; Translation ([4]; 2500 nM): 20.1284 and 25.4073 and 16.4444; Translation ([4]; 5000 nM): 10.3606 and 16.5158 and 20.3119; Translation ([4]; 10000 nM): 7.683 and 13.3898 and 13.8481; Translation ([4]; 20000 nM): 7.414 and 4.917 and 2.903; Translation ([4]; 40000 nM): 7.804 and 8.474 and 8.853; IC50 ([4]; Plasmodium falciparum, read-out: IC50 (Translation)): 510 nM; growth after 72 h exposure, normalised to no drug (P. falciparum Dd2 parent; Dd2 parent, 3.90625 nM): 105.433 and 105.733 and 104.567 and 104.167 and 104.633; growth after 72 h exposure, normalised to no drug (P. falciparum Dd2 parent; Dd2 parent, 7.8125 nM): 105.2 and 103.8 and 105.633 and 102.933 and 104.1; growth after 72 h exposure, normalised to no drug (P. falciparum Dd2 parent; Dd2 parent, 31.25 nM): 88.9667 and 98.9 and 97.0667 and 93.5333 and 97.5667; growth after 72 h exposure, normalised to no drug (P. falciparum Dd2 parent; Dd2 parent, 62.5 nM): 45.3 and 68.4 and 68.8333 and 58.4667 and 65.5; growth after 72 h exposure, normalised to no drug (P. falciparum Dd2 parent; Dd2 parent, 125 nM): 7.633 and 16.6667 and 15.5333 and 13.8333 and 17.5667; growth after 72 h exposure, normalised to no drug (P. falciparum Dd2 parent; Dd2 parent, 250 nM): 0.2 and 1.267 and 0.5667 and -1.767 and 2.067; growth after 72 h exposure, normalised to no drug (P. falciparum Dd2 parent; Dd2 parent, 500 nM): -1.167 and 0 and -0.8 and -3.167 and 0.4; growth after 72 h exposure, normalised to no drug (P. falciparum Dd2 parent; Dd2 parent, 1000 nM): -1.867 and -0.3333 and -1.3 and -3.5 and -0.4667; growth after 72 h exposure, normalised to no drug (P. falciparum Dd2 parent; Dd2 parent, 2000 nM): -0.8333 and -0.3667 and -0.8667 and -2.833 and 0.5; IC50 (P. falciparum Dd2 parent; Dd2 parent, individual experiments): 75.6 nM and 76.2 nM and 70 nM and 74.2 nM; IC50 (P. falciparum Dd2 parent; Plasmodium falciparum, DD2, Dd2 parent, individual experiments): 57 nM; IC50 (P. falciparum Dd2 parent; Plasmodium falciparum, DD2, Dd2 parent, mean ± S.D., five experiments): 71 nM; Growth ([5]; 3.125 nM OSM-S-106, 500 nM aTc): 98.4708 and 116.919 and 104.321; Growth ([5]; 3.125 nM OSM-S-106, no aTc): 98.4734 and 92.161 and 100.93; Growth ([5]; 6.25 nM OSM-S-106, 500 nM aTc): 96.7408 and 93.8415 and 101.366; Growth ([5]; 6.25 nM OSM-S-106, no aTc): 92.1288 and 90.7869 and 100.211; Growth ([5]; 12.5 nM OSM-S-106, 500 nM aTc): 103.105 and 71.6867 and 103.065; Growth ([5]; 12.5 nM OSM-S-106, no aTc): 102.145 and 82.3472 and 97.2955; Growth ([5]; 25 nM OSM-S-106, 500 nM aTc): 96.4937 and 50.4813 and 93.5; Growth ([5]; 25 nM OSM-S-106, no aTc): 103.53 and 55.9318 and 95.9432; solubility (Solubility; pH 2, simulated gastric fluid): 50 to 100 µg/mL (≈ 163 to 326 µM); solubility (Solubility; pH 6.5, aqueous buffer): 12.5 to 25 µg/mL (≈ 40.8 to 81.6 µM); stability in the solid state [6]: stable in the solid state
